# Test results as given in patent US9340590B2 (priority 2011, dated 2016).
# Read-outs that look alike come from different tables or passages of the source. Positions of bridges follow the written chain, without caps; N, C: chain ends. Non-standard residues stand in square brackets, D forms with d. Residues, ends and D or L forms follow the SMILES beside them. 1Nal = N[C@@H](Cc1cccc2ccccc12)C(=O)O
# Experiments:
# Experiment in all cases: cell-based
# [1] = target: hNav1.7 (Homo sapiens, UniProt Q15858); conditions: Nav1.7 Use IC50
# [2] = target: hNav1.3 (Homo sapiens, UniProt Q9NY46); format: cell-based; conditions: Nav1.3 Use IC50
# [3] = target: hNav1.5 (Homo sapiens, UniProt Q14524)
# Sequence of hNav1.7 (Q15858 whole entry, looked up): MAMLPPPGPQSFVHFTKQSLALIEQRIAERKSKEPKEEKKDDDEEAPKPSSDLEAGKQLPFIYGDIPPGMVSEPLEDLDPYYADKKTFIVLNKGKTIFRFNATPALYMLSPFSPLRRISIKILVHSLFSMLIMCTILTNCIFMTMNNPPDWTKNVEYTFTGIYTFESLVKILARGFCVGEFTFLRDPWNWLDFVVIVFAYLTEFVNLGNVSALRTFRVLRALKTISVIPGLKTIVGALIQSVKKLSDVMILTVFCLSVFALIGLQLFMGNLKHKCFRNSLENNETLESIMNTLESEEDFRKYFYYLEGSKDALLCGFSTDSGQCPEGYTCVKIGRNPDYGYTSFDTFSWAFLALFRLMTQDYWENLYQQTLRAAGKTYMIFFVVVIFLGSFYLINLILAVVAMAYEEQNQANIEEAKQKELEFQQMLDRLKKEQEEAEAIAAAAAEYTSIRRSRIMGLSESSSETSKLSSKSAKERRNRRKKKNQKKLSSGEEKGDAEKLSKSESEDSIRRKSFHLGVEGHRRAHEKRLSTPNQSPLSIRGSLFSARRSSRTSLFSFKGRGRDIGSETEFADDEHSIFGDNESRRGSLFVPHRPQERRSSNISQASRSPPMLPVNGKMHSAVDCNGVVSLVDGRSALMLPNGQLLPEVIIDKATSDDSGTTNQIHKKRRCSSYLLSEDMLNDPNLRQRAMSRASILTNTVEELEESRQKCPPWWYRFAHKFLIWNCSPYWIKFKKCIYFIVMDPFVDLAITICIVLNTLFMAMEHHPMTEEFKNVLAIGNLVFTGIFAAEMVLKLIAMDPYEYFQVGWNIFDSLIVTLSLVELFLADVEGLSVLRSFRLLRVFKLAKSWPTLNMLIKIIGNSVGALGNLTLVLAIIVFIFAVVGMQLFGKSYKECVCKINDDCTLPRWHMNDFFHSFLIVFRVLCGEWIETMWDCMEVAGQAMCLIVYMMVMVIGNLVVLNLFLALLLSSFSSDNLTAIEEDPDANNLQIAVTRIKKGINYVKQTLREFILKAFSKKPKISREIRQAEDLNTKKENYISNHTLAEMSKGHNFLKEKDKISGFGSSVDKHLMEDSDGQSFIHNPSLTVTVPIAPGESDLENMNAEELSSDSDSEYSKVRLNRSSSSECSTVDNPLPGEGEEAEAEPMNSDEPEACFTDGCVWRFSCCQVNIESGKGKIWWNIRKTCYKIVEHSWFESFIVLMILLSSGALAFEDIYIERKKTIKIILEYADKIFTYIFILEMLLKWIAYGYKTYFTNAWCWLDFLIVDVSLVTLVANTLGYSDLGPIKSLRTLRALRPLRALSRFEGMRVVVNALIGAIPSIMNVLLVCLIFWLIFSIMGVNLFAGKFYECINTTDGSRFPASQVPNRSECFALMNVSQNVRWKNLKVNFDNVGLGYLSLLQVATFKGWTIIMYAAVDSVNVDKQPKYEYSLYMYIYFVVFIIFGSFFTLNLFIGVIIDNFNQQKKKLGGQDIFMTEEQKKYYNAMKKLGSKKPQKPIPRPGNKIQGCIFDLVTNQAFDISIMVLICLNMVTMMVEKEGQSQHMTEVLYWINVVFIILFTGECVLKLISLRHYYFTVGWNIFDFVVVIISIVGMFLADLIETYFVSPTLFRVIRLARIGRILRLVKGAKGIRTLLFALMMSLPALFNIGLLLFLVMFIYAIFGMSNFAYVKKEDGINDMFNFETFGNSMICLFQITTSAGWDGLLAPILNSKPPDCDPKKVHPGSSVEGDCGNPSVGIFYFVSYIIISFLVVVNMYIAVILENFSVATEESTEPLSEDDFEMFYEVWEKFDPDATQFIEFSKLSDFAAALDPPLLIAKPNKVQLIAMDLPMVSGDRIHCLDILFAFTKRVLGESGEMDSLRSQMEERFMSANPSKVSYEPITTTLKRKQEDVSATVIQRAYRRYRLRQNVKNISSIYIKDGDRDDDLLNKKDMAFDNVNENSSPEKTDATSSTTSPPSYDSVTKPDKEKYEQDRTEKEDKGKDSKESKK
# Sequence of hNav1.3 (Q9NY46 whole entry, looked up): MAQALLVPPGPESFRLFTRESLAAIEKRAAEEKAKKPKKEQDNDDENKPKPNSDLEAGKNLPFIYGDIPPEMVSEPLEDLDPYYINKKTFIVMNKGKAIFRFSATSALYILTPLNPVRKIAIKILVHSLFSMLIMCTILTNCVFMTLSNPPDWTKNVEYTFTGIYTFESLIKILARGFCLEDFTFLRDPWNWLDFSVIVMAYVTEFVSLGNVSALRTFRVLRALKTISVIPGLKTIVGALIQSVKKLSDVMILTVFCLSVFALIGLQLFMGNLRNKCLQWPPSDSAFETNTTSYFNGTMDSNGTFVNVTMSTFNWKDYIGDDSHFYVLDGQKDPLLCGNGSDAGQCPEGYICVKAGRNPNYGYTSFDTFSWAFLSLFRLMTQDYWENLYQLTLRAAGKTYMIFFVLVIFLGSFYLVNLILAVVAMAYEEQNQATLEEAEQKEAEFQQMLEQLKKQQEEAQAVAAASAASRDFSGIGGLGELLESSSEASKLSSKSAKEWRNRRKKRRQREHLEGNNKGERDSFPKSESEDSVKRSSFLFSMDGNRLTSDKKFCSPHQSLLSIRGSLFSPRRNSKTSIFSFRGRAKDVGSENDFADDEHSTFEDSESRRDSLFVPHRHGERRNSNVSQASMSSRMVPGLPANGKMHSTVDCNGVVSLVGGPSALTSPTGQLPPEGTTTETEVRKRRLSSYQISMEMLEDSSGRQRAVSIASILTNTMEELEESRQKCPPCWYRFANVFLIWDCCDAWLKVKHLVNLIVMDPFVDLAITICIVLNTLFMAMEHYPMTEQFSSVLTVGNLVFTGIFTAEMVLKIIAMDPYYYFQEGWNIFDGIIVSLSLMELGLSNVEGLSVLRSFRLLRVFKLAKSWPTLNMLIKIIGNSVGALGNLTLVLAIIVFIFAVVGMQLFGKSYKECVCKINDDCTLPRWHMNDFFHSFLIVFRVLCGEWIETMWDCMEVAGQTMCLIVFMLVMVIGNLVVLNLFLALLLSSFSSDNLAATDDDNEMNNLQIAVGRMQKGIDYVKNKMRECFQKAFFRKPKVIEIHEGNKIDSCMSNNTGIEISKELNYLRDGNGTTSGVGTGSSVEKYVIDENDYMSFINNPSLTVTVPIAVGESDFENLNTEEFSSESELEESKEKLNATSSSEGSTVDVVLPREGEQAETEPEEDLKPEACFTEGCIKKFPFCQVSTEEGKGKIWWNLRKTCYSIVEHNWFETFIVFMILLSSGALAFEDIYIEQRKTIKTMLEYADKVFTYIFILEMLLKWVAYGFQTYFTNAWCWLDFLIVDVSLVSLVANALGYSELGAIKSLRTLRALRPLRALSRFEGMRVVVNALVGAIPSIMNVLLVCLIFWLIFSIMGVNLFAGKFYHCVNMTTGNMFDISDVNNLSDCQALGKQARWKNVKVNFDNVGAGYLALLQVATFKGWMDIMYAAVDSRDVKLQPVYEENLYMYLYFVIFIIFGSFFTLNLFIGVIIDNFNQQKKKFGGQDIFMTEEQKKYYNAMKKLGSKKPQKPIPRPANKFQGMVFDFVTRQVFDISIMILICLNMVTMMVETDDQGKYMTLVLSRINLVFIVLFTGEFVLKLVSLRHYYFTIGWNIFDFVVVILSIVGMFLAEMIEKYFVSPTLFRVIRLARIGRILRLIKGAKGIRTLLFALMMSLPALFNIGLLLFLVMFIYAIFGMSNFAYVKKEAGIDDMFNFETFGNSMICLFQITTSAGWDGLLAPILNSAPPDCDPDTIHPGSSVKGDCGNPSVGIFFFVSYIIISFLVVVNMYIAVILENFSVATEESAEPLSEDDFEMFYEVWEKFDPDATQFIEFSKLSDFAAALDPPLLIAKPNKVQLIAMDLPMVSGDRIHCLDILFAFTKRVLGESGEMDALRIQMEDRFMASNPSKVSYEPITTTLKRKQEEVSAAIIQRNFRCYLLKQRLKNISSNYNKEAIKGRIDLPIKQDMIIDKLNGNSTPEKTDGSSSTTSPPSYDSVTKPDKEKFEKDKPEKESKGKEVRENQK
SMILES,IC50 [1] [nM],IC50 [2] [nM],IC50 [3] [nM],IC50 ([3]; read-out: Nav1.5 Use IC50) [nM]
"CC[C@H](C)[C@@H]1NC(=O)[C@@H]2CSSC[C@@H]3NC(=O)[C@H](C(C)C)NC(=O)[C@H](CC(C)C)NC(=O)[C@H](CC(N)=O)NC(=O)[C@@H]4CCCN4C(=O)[C@H](CCCNC(=N)N)NC(=O)[C@H](CSSC[C@H](NC(=O)[C@@H](N)CC(=O)O)C(=O)N[C@@H](CC(C)C)C(=O)NCC(=O)N[C@@H](C)C(=O)N[C@@H](CCSC)C(=O)N[C@@H](CCCNC(=N)N)C(=O)N[C@@H](CCCCN)C(=O)N2)NC(=O)[C@H](CSSC[C@@H](C(=O)N[C@@H](CCCCN)C(=O)N[C@@H](Cc2c[nH]c4ccccc24)C(=O)N[C@H](C(=O)N[C@@H](Cc2ccccc2)C(N)=O)C(C)C)NC(=O)[C@H](Cc2c[nH]c4ccccc24)NC(=O)[C@H](CCCCN)NC(=O)[C@H](Cc2c[nH]cn2)NC(=O)[C@H]([C@@H](C)O)NC(=O)[C@H](CCCNC(=N)N)NC(=O)[C@H](CO)NC3=O)NC(=O)[C@H](CCCCN)NC(=O)[C@H](CC(=O)O)NC(=O)[C@H](CC(N)=O)NC(=O)[C@H](CC(=O)O)NC(=O)[C@@H]2CCCN2C1=O [[Ala5;Trp32]GpTx-1(1-34)] (H-DCLGAMRKCIPDNDKCCRPNLVCSRTHKWCKWVF-NH2; disulfide 2-17, 9-23, 16-30)",103,2980,> 10000,–
"CC[C@H](C)[C@@H]1NC(=O)[C@@H]2CSSC[C@@H]3NC(=O)[C@H](C(C)C)NC(=O)[C@H](CC(C)C)NC(=O)[C@H](CC(N)=O)NC(=O)[C@@H]4CCCN4C(=O)[C@H](CCCNC(=N)N)NC(=O)[C@H](CSSC[C@H](NC(=O)[C@@H](N)CC(=O)O)C(=O)N[C@@H](CC(C)C)C(=O)NCC(=O)N[C@@H](C)C(=O)N[C@@H](CCSC)C(=O)N[C@@H](CCCNC(=N)N)C(=O)N[C@@H](CCCCN)C(=O)N2)NC(=O)[C@H](CSSC[C@@H](C(=O)N[C@@H](CCCCN)C(=O)N[C@@H](Cc2ccc(O)cc2)C(=O)N[C@@H](Cc2c[nH]c4ccccc24)C(=O)N[C@@H](Cc2ccccc2)C(N)=O)NC(=O)[C@H](Cc2c[nH]c4ccccc24)NC(=O)[C@H](CCCCN)NC(=O)[C@H](Cc2c[nH]cn2)NC(=O)[C@H]([C@@H](C)O)NC(=O)[C@H](CCCNC(=N)N)NC(=O)[C@H](CO)NC3=O)NC(=O)[C@H](CCCCN)NC(=O)[C@H](CC(=O)O)NC(=O)[C@H](CC(N)=O)NC(=O)[C@H](CC(=O)O)NC(=O)[C@@H]2CCCN2C1=O [[Ala5;Trp33]GpTx-1(1-34)] (H-DCLGAMRKCIPDNDKCCRPNLVCSRTHKWCKYWF-NH2; disulfide 2-17, 9-23, 16-30)",34,569,> 10000,–
"CC[C@H](C)[C@@H]1NC(=O)[C@@H]2CSSC[C@@H]3NC(=O)[C@H](C(C)C)NC(=O)[C@H](CC(C)C)NC(=O)[C@H](CC(N)=O)NC(=O)[C@@H]4CCCN4C(=O)[C@H](CCCNC(=N)N)NC(=O)[C@H](CSSC[C@H](NC(=O)[C@@H](N)CC(=O)O)C(=O)N[C@@H](CC(C)C)C(=O)NCC(=O)N[C@@H](Cc4ccccc4)C(=O)N[C@@H](CCSC)C(=O)N[C@@H](CCCNC(=N)N)C(=O)N[C@@H](CCCCN)C(=O)N2)NC(=O)[C@H](CSSC[C@@H](C(=O)N[C@@H](CCCCN)C(=O)N[C@@H](Cc2cccc4ccccc24)C(=O)N[C@H](C(=O)N[C@@H](Cc2ccccc2)C(N)=O)C(C)C)NC(=O)[C@H](Cc2c[nH]c4ccccc24)NC(=O)[C@H](CCCNC(=N)N)NC(=O)[C@H](Cc2c[nH]cn2)NC(=O)[C@H]([C@@H](C)O)NC(=O)[C@H](CCCNC(=N)N)NC(=O)[C@H](CO)NC3=O)NC(=O)[C@H](CCCCN)NC(=O)[C@H](CC(=O)O)NC(=O)[C@H](CC(N)=O)NC(=O)[C@H](CC(=O)O)NC(=O)[C@@H]2CCCN2C1=O [[Arg28;1-Nal32]GpTx-1(1-34)] (H-DCLGFMRKCIPDNDKCCRPNLVCSRTHRWCK[1Nal]VF-NH2; disulfide 2-17, 9-23, 16-30)",5,6,1060,–
CC[C@H](C)[C@@H]1NC(=O)[C@@H]2CSSC[C@@H]3NC(=O)[C@H](C(C)C)NC(=O)[C@H](CC(C)C)NC(=O)[C@H](CC(N)=O)NC(=O)[C@@H]4CCCN4C(=O)[C@H](CCCNC(=N)N)NC(=O)[C@H](CSSC[C@H](NC(=O)[C@@H](N)CC(=O)O)C(=O)N[C@@H](CC(C)C)C(=O)NCC(=O)N[C@@H](Cc4ccccc4)C(=O)N[C@@H](CCSC)C(=O)N[C@@H](CCCNC(=N)N)C(=O)N[C@@H](CCCCN)C(=O)N2)NC(=O)[C@H](CSSC[C@@H](C(=O)N[C@@H](CCCCN)C(=O)N[C@@H](Cc2ccc(O)cc2)C(=O)N[C@H](C(=O)N[C@@H](Cc2ccccc2)C(N)=O)C(C)C)NC(=O)[C@H](Cc2c[nH]c4ccccc24)NC(=O)[C@H](CCCNC(=N)N)NC(=O)[C@H](Cc2c[nH]cn2)NC(=O)[C@H]([C@@H](C)O)NC(=O)[C@H](CCCNC(=N)N)NC(=O)[C@H](CO)NC3=O)NC(=O)[C@H](CCCCN)NC(=O)[C@H](CC(=O)O)NC(=O)[C@H](CC(N)=O)NC(=O)[C@H](CC(=O)O)NC(=O)[C@@H]2CCCN2C1=O [[Arg28]GpTx-1(1-34)],7,12,–,8730
"CC[C@H](C)[C@@H]1NC(=O)[C@@H]2CSSC[C@@H]3NC(=O)[C@H](C(C)C)NC(=O)[C@H](CC(C)C)NC(=O)[C@H](CC(N)=O)NC(=O)[C@@H]4CCCN4C(=O)[C@H](CCCNC(=N)N)NC(=O)[C@H](CSSC[C@H](NC(=O)[C@@H](N)CC(=O)O)C(=O)N[C@@H](CC(C)C)C(=O)NCC(=O)N[C@@H](Cc4ccccc4)C(=O)N[C@@H](CCSC)C(=O)N[C@@H](CCCNC(=N)N)C(=O)N[C@@H](CCCCN)C(=O)N2)NC(=O)[C@H](CSSC[C@@H](C(=O)N[C@@H](CCCCN)C(=O)N[C@@H](Cc2ccc(O)cc2)C(=O)N[C@@H](CCC(N)=O)C(=O)N[C@@H](Cc2ccccc2)C(N)=O)NC(=O)[C@H](Cc2c[nH]c4ccccc24)NC(=O)[C@H](CCCCN)NC(=O)[C@H](Cc2c[nH]cn2)NC(=O)[C@H]([C@@H](C)O)NC(=O)[C@H](CCCNC(=N)N)NC(=O)[C@H](CO)NC3=O)NC(=O)[C@H](CCCCN)NC(=O)[C@H](CC(=O)O)NC(=O)[C@H](CC(N)=O)NC(=O)[C@H](CC(=O)O)NC(=O)[C@@H]2CCCN2C1=O [[Gln33]GpTx-1(1-34)] (H-DCLGFMRKCIPDNDKCCRPNLVCSRTHKWCKYQF-NH2; disulfide 2-17, 9-23, 16-30)",6,10,8250,–
"CC[C@H](C)[C@@H]1NC(=O)[C@@H]2CSSC[C@@H]3NC(=O)[C@H](C(C)C)NC(=O)[C@H](CC(C)C)NC(=O)[C@H](CC(N)=O)NC(=O)[C@@H]4CCCN4C(=O)[C@H](CCCNC(=N)N)NC(=O)[C@H](CSSC[C@H](NC(=O)[C@@H](N)CC(=O)O)C(=O)N[C@@H](CC(C)C)C(=O)NCC(=O)N[C@@H](Cc4ccccc4)C(=O)N[C@@H](CCSC)C(=O)N[C@@H](CCCNC(=N)N)C(=O)N[C@@H](CCCCN)C(=O)N2)NC(=O)[C@H](CSSC[C@@H](C(=O)N[C@@H](CCCCN)C(=O)N[C@@H](Cc2ccc(O)cc2)C(=O)N[C@@H](CCC(=O)O)C(=O)N[C@@H](Cc2ccccc2)C(N)=O)NC(=O)[C@H](Cc2c[nH]c4ccccc24)NC(=O)[C@H](CCCCN)NC(=O)[C@H](Cc2cnc[nH]2)NC(=O)[C@H]([C@@H](C)O)NC(=O)[C@H](CCCNC(=N)N)NC(=O)[C@H](CO)NC3=O)NC(=O)[C@H](CCCCN)NC(=O)[C@H](CC(=O)O)NC(=O)[C@H](CC(N)=O)NC(=O)[C@H](CC(=O)O)NC(=O)[C@@H]2CCCN2C1=O [[Glu33]GpTx-1(1-34)] (H-DCLGFMRKCIPDNDKCCRPNLVCSRTHKWCKYEF-NH2; disulfide 2-17, 9-23, 16-30)",27,52,> 10000,–
"CC[C@H](C)[C@H](NC(=O)[C@H](Cc1ccc(O)cc1)NC(=O)[C@H](CCCCN)NC(=O)[C@@H]1CSSC[C@@H]2NC(=O)[C@H](CCCCN)NC(=O)[C@H](CC(=O)O)NC(=O)[C@H](CC(N)=O)NC(=O)[C@H](CC(=O)O)NC(=O)[C@@H]3CCCN3C(=O)[C@H]([C@@H](C)CC)NC(=O)[C@@H]3CSSC[C@H](NC(=O)[C@H](C(C)C)NC(=O)[C@H](CC(C)C)NC(=O)[C@H](CC(N)=O)NC(=O)[C@@H]4CCCN4C(=O)[C@H](CCCNC(=N)N)NC(=O)[C@H](CSSC[C@H](NC(=O)[C@@H](N)CC(=O)O)C(=O)N[C@@H](CC(C)C)C(=O)NCC(=O)N[C@@H](Cc4ccccc4)C(=O)N[C@@H](CCSC)C(=O)N[C@@H](CCCNC(=N)N)C(=O)N[C@@H](CCCCN)C(=O)N3)NC2=O)C(=O)N[C@@H](CO)C(=O)N[C@@H](CCCNC(=N)N)C(=O)N[C@@H]([C@@H](C)O)C(=O)N[C@@H](Cc2c[nH]cn2)C(=O)N[C@@H](CCCCN)C(=O)N[C@@H](Cc2c[nH]c3ccccc23)C(=O)N1)C(=O)N[C@@H](Cc1ccccc1)C(N)=O [[Ile33]GpTx-1(1-34)] (H-DCLGFMRKCIPDNDKCCRPNLVCSRTHKWCKYIF-NH2; disulfide 2-17, 9-23, 16-30)",37,102,> 10000,–
"CC[C@H](C)[C@@H]1NC(=O)[C@@H]2CSSC[C@@H]3NC(=O)[C@H](C(C)C)NC(=O)[C@H](CC(C)C)NC(=O)[C@H](CC(N)=O)NC(=O)[C@@H]4CCCN4C(=O)[C@H](CCCNC(=N)N)NC(=O)[C@H](CSSC[C@H](NC(=O)[C@@H](N)CC(=O)O)C(=O)N[C@@H](CC(C)C)C(=O)NCC(=O)N[C@@H](Cc4ccccc4)C(=O)N[C@@H](CCSC)C(=O)N[C@@H](CCCNC(=N)N)C(=O)N[C@@H](CCCCN)C(=O)N2)NC(=O)[C@H](CSSC[C@@H](C(=O)N[C@@H](CCCCN)C(=O)N[C@@H](Cc2ccc(O)cc2)C(=O)N[C@H](C(=O)N[C@@H](Cc2ccccc2)C(N)=O)C(C)C)NC(=O)[C@H](Cc2c[nH]c4ccccc24)NC(=O)[C@H](CCCCN)NC(=O)[C@H](Cc2cnc[nH]2)NC(=O)[C@H](CC(C)C)NC(=O)[C@H](CCCNC(=N)N)NC(=O)[C@H](CO)NC3=O)NC(=O)[C@H](CCCCN)NC(=O)[C@H](CC(=O)O)NC(=O)[C@H](CC(N)=O)NC(=O)[C@H](CC(=O)O)NC(=O)[C@@H]2CCCN2C1=O [[Leu26]GpTx-1(1-34)] (H-DCLGFMRKCIPDNDKCCRPNLVCSRLHKWCKYVF-NH2; disulfide 2-17, 9-23, 16-30)",3,23,5010,–
